The assay concerns primary rat mixed cortical cells. The assay can be described thus: In vitro myelination assay (MBP positive myelin strands, fold myelin pixels above background). The class given is cell-based. The following applies: Rattus norvegicus, relative to baseline of no added compound; for fold induction at 1 µM: 1.0 μM compound, read-out: Fold myelin pixels above background, 1.0 μM; for fold induction at 10 µM: 10.0 μM compound, read-out: Fold myelin pixels above background, 10.0 μM. From the text: In Vitro Myelination Assay
Compounds were screened for their ability to induce myelination using a primary rat mixed cortical cell culture assay, which contains neurons, oligodendrocyte precursor cells, oligodendrocytes, astrocytes and microglia. The assay quantifies myelination by measuring myelin basic protein (MBP) immunofluorescent positive myelin strands from images taken using a Cellomics Array Scan (model Arrayscan VTI HCS Reader) or a Molecular Devices Image Xpress (model IXM XL) high content imager. The myelin strands were quantitated using a custom created myelin detection software program. Test compounds were dissolved in DMSO to make a 10 mM initial stock solution. Dilutions were made in myelination medium to obtain the final solutions for the assay and were tested in primary rat mixed cortical cells at selected doses.
Primary rat mixed cortical cells were prepared from harvested cerebral cortices from postnatal day 1 (P1) rats (P1 Rat CD® IGS pups) were purchased from Charles River) in Complete Dissociation Medium, wherein the meninges were removed and the cortical tissue chopped with a razor blade into ˜1 mm^3 pieces. Tissue from 1-3 pups was collected and placed into 15 ml conical tubes in a total volume of 5 ml of Complete Dissociation Medium. Activated papain (3 ml) was added to each 15 ml conical tube and tissue was incubated at 37° C. for 30 minutes. After the 30 minute incubation, DNase (Sigma D4527; 75 μl of a 1 mg/ml stock) was added to each tube, followed by mechanical trituration using a 2 ml serological pipette and autopipettor to gently dissociate the tissue. Following trituration, larger tissue pieces were allowed to settle by gravity, and the supernatant containing dissociated cells was transferred to a 50 ml conical tube with 4 ml of trypsin inhibitor. Cells were pelleted by centrifugation, resuspended in myelination medium and filtered through a 40 μm filter. Cells were then seeded in 96-well plates (BD Biosciences, Black, PDL-coated, Cat. No. 356640) at 87,500-95,000 cells/well in a final volume of 200 μl of Myelination Medium in the presence or absence of compound and cultured for 14 days in a humidified 37° C. incubator with 5% CO2. Half the medium was removed and replaced with fresh medium containing 1× compound on days 6 and 10. Using a Biotek automatic plate washer (model Biomek® FXP Laboratory Automation Workstation), cells were fixed with 4% paraformaldehyde on day 14, washed with PBS and blocked in 5% normal goat serum (Vector Laboratories, S-1000) in 0.1% PBS-TritonX-100 (PBST) for 1 hour. Cells were stained with 1:500 anti-MBP (Covance, cat # SMI99) primary antibody in 1% normal goat serum in 0.1% PBST for 2 hours at room temperature followed by 2 washes with PBST. A final incubation in secondary antibody (1:1000, Invitrogen, Alexa-488 anti-mouse IgG2b) and 1:10,000 Hoechst dye in 1% normal goat serum in 0.1% PBST was performed for 2 hours at room temperature. Plates were washed with PBS and then scanned on a Cellomics Array Scan using a 10× objective (25 images per well) or the Image Xpress using a 10× objective (9 image per well). Images were analyzed using Vertex myelin detection software (described below) to quantify total MBP myelin pixels per well. Fold myelin pixels above background at two concentrations (1.0 μM and 10.0 μM) relative to baseline of no added compound are reported below in Table 4. Standard deviation for each compound concentration was calculated using all replicates and using a standard deviation formula commonly used in the art.
One of skill in the art would recognize that for this type of primary neuronal mixed cell assay variability between different assay runs is to be expected even though the protocol is the same for each assay run. For instance, variability may be due to small differences in cell viability, cell density, age of the animals, etc.
Vertex Myelin Detection Software: […]

Our source for the fold induction values is patent US10766869B2, “Triazoles for the treatment of demyelinating dieases” (Vertex Pharmaceuticals Incorporated, priority 2015, dated 2020).

A value given as a limit tells only on which side of the number the result lay.

With `Cc1cc(Nc2ncn(-c3cc(F)cc(F)c3)n2)cc(N2C[C@@H]3C[C@H]2CN3C2COC2)c1` [Compound 34, 1-(3,5-difluorophenyl)-N-[3-methyl-5-[(1S,4S)-2-(oxetan-3-yl)-2,5-diazabicyclo[2.2.1]heptan-5-yl]phenyl]-1,2,4-triazol-3-amine], the fold induction at 1 µM is 100 to 1000 and the fold induction at 10 µM was not above 1.

In the case of `Fc1cc(F)cc(-n2cnc(Nc3cc(C4=CCOCC4)nc(C4CC4)c3)n2)c1` [Compound 35, 2-cyclopropyl-N-[1-(3,5-difluorophenyl)-1,2,4-triazol-3-yl]-6-(3,6-dihydro-2H-pyran-4-yl)pyridin-4-amine], the fold induction at 1 µM was in the range of 100 to 1000 and the fold induction at 10 µM lay within 10 to 100.

For the compound `Cc1cc(Nc2ncn(-c3cccc(F)c3)n2)cc(C2CN(C3COC3)C2)c1` [Compound 36, 1-(3-fluorophenyl)-N-[3-methyl-5-[1-(oxetan-3-yl)azetidin-3-yl]phenyl]-1,2,4-triazol-3-amine], the fold induction at 1 µM is 1000 to 10000 and the fold induction at 10 µM was not above 1.

In the case of `Cc1cc(Nc2ncn(-c3cc(F)cc(F)c3)n2)cc(N2CCN(C)CC2)c1` [Compound 37, 1-(3,5-difluorophenyl)-N-[3-methyl-5-(4-methylpiperazin-1-yl)phenyl]-1,2,4-triazol-3-amine], the fold induction at 1 µM lay in the range of 100 to 1000 and the fold induction at 10 µM is not above 1.

As for `Cc1cc(Nc2ncn(-c3cc(F)cc(F)c3)n2)cc(NC2CCN(C3COC3)CC2)c1` [Compound 38, N3-[1-(3,5-difluorophenyl)-1,2,4-triazol-3-yl]-5-methyl-N1-[1-(oxetan-3-yl)-4-piperidyl]benzene-1,3-diamine], the fold induction at 1 µM is 10 to 100 and the fold induction at 10 µM fell in the range of 10 to 100.

Take `Cc1cc(Nc2ncn(-c3ccccc3)n2)cc(C2CCNC2)c1` (stereo not shown) [Compound 39, N-(3-methyl-5-pyrrolidin-3-yl-phenyl)-1-phenyl-1,2,4-triazol-3-amine]: the fold induction at 1 µM was 1000 to 10000 and the fold induction at 10 µM was not above 1.

On to `Cc1cc(Nc2ncn(-c3ccnc(F)c3)n2)cc(N2CCN(C3COC3)CC2)c1` [Compound 40, 1-(2-fluoro-4-pyridyl)-N-[3-methyl-5-[4-(oxetan-3-yl)piperazin-1-yl]phenyl]-1,2,4-triazol-3-amine], for which the fold induction at 1 µM was in the range of 1000 to 10000 and the fold induction at 10 µM was 10 to 100.

Turning to `CCOCC1CCCN1c1cc(F)cc(-n2cnc(Nc3cc(C)cc(N4CCN(C5COC5)CC4)c3)n2)c1` (stereo not shown) [Compound 41, 1-[3-[2-(ethoxymethyl)pyrrolidin-1-yl]-5-fluoro-phenyl]-N-[3-methyl-5-[4-(oxetan-3-yl)piperazin-1-yl]phenyl]-1,2,4-triazol-3-amine], the fold induction at 1 µM was 10 to 100 and the fold induction at 10 µM is not above 1.

As for `Cc1cc(Nc2ncn(-c3ccnc(Cl)c3)n2)cc(N2CCCC2)c1` [Compound 42, 1-(2-chloro-4-pyridyl)-N-(3-methyl-5-pyrrolidin-1-yl-phenyl)-1,2,4-triazol-3-amine], the fold induction at 1 µM was 10 to 100 and the fold induction at 10 µM fell in the range of 100 to 1000.

Turning to `Cc1cc(Nc2ncn(-c3ccc(F)c(F)c3)n2)cc(N2CCOCC2)c1` [Compound 43, 1-(3,4-difluorophenyl)-N-(3-methyl-5-morpholino-phenyl)-1,2,4-triazol-3-amine], the fold induction at 1 µM was 100 to 1000 and the fold induction at 10 µM is 100 to 1000.

As to `CC1CCN(c2cc(Nc3ncn(-c4ccccc4)n3)cc(C3CC3)n2)CC1` [Compound 44, 2-cyclopropyl-6-(4-methyl-1-piperidyl)-N-(1-phenyl-1,2,4-triazol-3-yl)pyridin-4-amine], the fold induction at 1 µM lay in the range of 1000 to 10000 and the fold induction at 10 µM fell in the range of 1000 to 10000.

Consider `Cc1cc(Nc2ncn(-c3ccccc3)n2)cc(N2CCOCC2)c1` [Compound 45, N-(3-methyl-5-morpholino-phenyl)-1-phenyl-1,2,4-triazol-3-amine], for which the fold induction at 1 µM lay in the range of 1000 to 10000 and the fold induction at 10 µM fell in the range of 100 to 1000.

On to `Cc1cc(Nc2ncn(-c3ccc(F)c(F)c3)n2)cc(O[C@@H]2CCN(C3COC3)C2)c1` [Compound 46, 1-(3,4-difluorophenyl)-N-[3-methyl-5-[(3R)-1-(oxetan-3-yl)pyrrolidin-3-yl]oxy-phenyl]-1,2,4-triazol-3-amine], for which the fold induction at 1 µM lay in the range of 1000 to 10000 and the fold induction at 10 µM lay in the range of 1 to 10.

For `c1ccc(-n2cnc(Nc3cc(C4CC4)cc(N4CCN(C5COC5)CC4)c3)n2)cc1` [Compound 47, N-[3-cyclopropyl-5-[4-(oxetan-3-yl)piperazin-1-yl]phenyl]-1-phenyl-1,2,4-triazol-3-amine], the fold induction at 1 µM lay in the range of 100 to 1000 and the fold induction at 10 µM is not above 1.

As to `Fc1cc(Nc2ncn(-c3ccccc3F)n2)cc(N2CCOCC2)c1` [Compound 49, N-(3-fluoro-5-morpholino-phenyl)-1-(2-fluorophenyl)-1,2,4-triazol-3-amine], the fold induction at 1 µM is not above 1 and the fold induction at 10 µM lay in the range of 10 to 100.

In the case of `CCc1cc(Nc2ncn(-c3ncncc3F)n2)cc(N2CCN(C3COC3)CC2)c1` [Compound 50, N-[3-ethyl-5-[4-(oxetan-3-yl)piperazin-1-yl]phenyl]-1-(5-fluoropyrimidin-4-yl)-1,2,4-triazol-3-amine], the fold induction at 1 µM was not above 1 and the fold induction at 10 µM lay within 1000 to 10000.

`Cc1cc(Nc2ncn(-c3ccccc3)n2)cc(C2CCN(C3(CS(=O)(=O)c4ccccc4)COC3)CC2)c1` [Compound 51, N-[3-[1-[3-(benzenesulfonylmethyl)oxetan-3-yl]-4-piperidyl]-5-methyl-phenyl]-1-phenyl-1,2,4-triazol-3-amine]: the fold induction at 1 µM fell in the range of 100 to 1000 and the fold induction at 10 µM was 100 to 1000.

With `Cc1cc(Nc2ncn(-c3ccc(F)c(F)c3)n2)cc(O[C@H]2CCN(C3COC3)C2)c1` [Compound 52, 1-(3,4-difluorophenyl)-N-[3-methyl-5-[(3S)-1-(oxetan-3-yl)pyrrolidin-3-yl]oxy-phenyl]-1,2,4-triazol-3-amine], the fold induction at 1 µM was 1000 to 10000 and the fold induction at 10 µM was not above 1.

Turning to `Cc1cc(Nc2ncn(-c3cc(F)cc(F)c3)n2)cc(N2CCN(C)C(CO)C2)c1` (stereo not shown) [Compound 53, [4-[3-[[1-(3,5-difluorophenyl)-1,2,4-triazol-3-yl]amino]-5-methyl-phenyl]-1-methyl-piperazin-2-yl]methanol], the fold induction at 1 µM lay in the range of 10 to 100 and the fold induction at 10 µM was not above 1.

`Cc1cc(Nc2ncn(-c3cc(C)ccn3)n2)cc(N2CCN(C3COC3)CC2)c1` [Compound 54, N-[3-methyl-5-[4-(oxetan-3-yl)piperazin-1-yl]phenyl]-1-(4-methyl-2-pyridyl)-1,2,4-triazol-3-amine]: the fold induction at 1 µM lay in the range of 10 to 100 and the fold induction at 10 µM was 100 to 1000.

Regarding `Clc1cccc(-n2cnc(Nc3cc(C4CC4)cc(N4CCN(C5COC5)CC4)c3)n2)c1` [Compound 55, 1-(3-chlorophenyl)-N-[3-cyclopropyl-5-[4-(oxetan-3-yl)piperazin-1-yl]phenyl]-1,2,4-triazol-3-amine], the fold induction at 1 µM was 100 to 1000 and the fold induction at 10 µM was not above 1.

With `COc1cc(F)cc(-n2cnc(Nc3cc(C)cc(N4CCN(C5COC5)CC4)c3)n2)c1` [Compound 56, 1-(3-fluoro-5-methoxy-phenyl)-N-[3-methyl-5-[4-(oxetan-3-yl)piperazin-1-yl]phenyl]-1,2,4-triazol-3-amine], the fold induction at 1 µM fell in the range of 100 to 1000 and the fold induction at 10 µM lay within 100 to 1000.

`Cc1cc(Nc2ncn(-c3ccccc3)n2)cc(N2CCNC([C@](C)(O)C(C)C)C2)n1` (stereo partly drawn) [Compound 57, (2R)-3-methyl-2-[4-[6-methyl-4-[(1-phenyl-1,2,4-triazol-3-yl)amino]-2-pyridyl]piperazin-2-yl]butan-2-ol]: the fold induction at 1 µM was in the range of 100 to 1000 and the fold induction at 10 µM is not above 1.
